These results are taken from PubChem BioAssay (NCI).

Test systems include P388/ADR leukemia; P388 leukemia; SN12K1 renal; DMS 114 small cell lung; MDA-N; 786-0 renal; MDA-MB-435; BT-549 breast; PC-3 prostate; MDA-MB-231 breast; DU-145 prostate; T-47D breast.
Common to all, as to assay: NCI tumour cell line growth inhibition, 48 h

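Cultured in 96-well plates, cells were exposed to test compound for 48 hours across five concentrations. TGI: total growth inhibition.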 Where a SMILES comes first, the peptide text is derived from it. [ ]: non-standard residue; d: D form. A value given as a limit tells only on which side of the number the result lay.

With `CC(C)C[C@H](NC(=O)[C@H](CC(C)C)NC(=O)[C@@H](Cc1c[nH]c2ccccc12)NC(=O)[C@H](Cc1ccccc1)NC(=O)[C@@H](Cc1c[nH]c2ccccc12)NC(=O)[C@H](CCC(N)=O)NC(=O)[C@H](CCC(N)=O)NC(=O)[C@H]1CCCN1C(=O)[C@@H](N)CCCCN)C(N)=O` (H-K[dP]QQ[dW]F[dW]LL-NH2), the TGI in the assay with P388/ADR leukemia, in the assay on P388 leukemia and in the assay on SN12K1 renal was greater than 100 µM each time.

Take `CC(=O)Nc1cccc(N=NN(C)C)c1`: the TGI in the assay with P388/ADR leukemia, with P388 leukemia, in the assay on SN12K1 renal and in the assay with DMS 114 small cell lung was greater than 100 µM in each case.

Take `CC(C)NC(=O)OCc1c2c(n(C)c1COC(=O)NC(C)C)-c1ccccc1CC2`: the figures for the TGI in the assay on P388/ADR leukemia, in the assay with SN12K1 renal and with DMS 114 small cell lung were 5.27 µM, 24.4 µM and 17 µM, respectively.

As to `O=[N+]([O-])c1ccc(NNN=Nc2ccc(-c3nc4ccccc4s3)cc2)c([N+](=O)[O-])c1`, the TGI in the assay with MDA-N is 35.3 µM; with 786-0 renal, 50.6 µM; in the assay with MDA-MB-435 it was 66.2 µM; in the assay with BT-549 breast, 58.7 µM; with PC-3 prostate, 73.3 µM; with MDA-MB-231 breast it was 64.3 µM. Also, the TGI in the assay on DU-145 prostate and with T-47D breast was greater than 100 µM in each case.

On to `O=C(O)C1CCCCN1c1ccccc1[N+](=O)[O-]` (stereo unspecified), for which the TGI in the assay on DMS 114 small cell lung was greater than 100 µM.

As to `O=c1oc2cc(O)ccc2c(O)c1Cc1c(O)c2ccc(O)cc2oc1=O`, the TGI in the assay with MDA-N, in the assay on MDA-MB-435, in the assay on BT-549 breast, in the assay with PC-3 prostate, with MDA-MB-231 breast and in the assay on DU-145 prostate was greater than 100 µM throughout. The compound also returned a TGI in the assay with T-47D breast greater than 100 µM.

With `CN(Cc1cnc2c(N)nc(N)nc2n1)c1ccc(Cl)cc1`, the TGI in the assay with MDA-N, with MDA-MB-435, in the assay on BT-549 breast, with PC-3 prostate, in the assay on MDA-MB-231 breast and with DU-145 prostate was greater than 100 µM throughout. In the assay on T-47D breast, this compound gave a TGI greater than 100 µM.

On to `C[C@@H]1CC[C@@]2(OC1)O[C@H]1C[C@H]3[C@@H]4CC[C@H]5C[C@@H](OC6OC(CO)C(OC7OC(CO)C(O)C(OC8OCC(O)C(O)C8O)C7OC7OC(CO)C(O)C(O)C7O)C(O)C6O)[C@H](O)C[C@]5(C)[C@H]4CC[C@]3(C)[C@H]1[C@@H]2C` (stereo partly specified), for which the TGI was determined as 28.3 µM in the assay with MDA-N; 31.8 µM with MDA-MB-435; 7.47 µM with BT-549 breast; 15.3 µM in the assay on PC-3 prostate; 6.71 µM with MDA-MB-231 breast; 13.9 µM in the assay on DU-145 prostate. The compound further gave a TGI in the assay with T-47D breast of 28 µM.

`CCn1cnnc1-c1nsc2ccccc12`: the TGI with DMS 114 small cell lung is greater than 100 µM.

Consider `O=c1cc(-c2ccccc2)[nH]c2nccn12`, for which the TGI in the assay with MDA-N, in the assay on MDA-MB-435, with PC-3 prostate, with MDA-MB-231 breast, with DU-145 prostate and in the assay with T-47D breast was greater than 10 µM each time.

As to `CC1=CC2c3cccc4[nH]cc(c34)CC2N(C)C1` (stereo unspecified), the TGI in the assay on P388/ADR leukemia was greater than 73.1 µM; in the assay on P388 leukemia, greater than 100 µM; with SN12K1 renal it was greater than 31.6 µM; in the assay with DMS 114 small cell lung it was greater than 100 µM.
